Measured values reported in paper PMC9440176, “Novel benzylidene benzofuranone analogues as potential anticancer agents: design, synthesis and in vitro evaluation based on CDK2 inhibition assays” (3 Biotech, 2022).

Experiments:
Assay type in all cases: cell-based, Human
[1] = tested on: HCT116 cells; test: Comet assay (DNA damage); details: 24 h, HCT-116
Experimental: To assess the genotoxicity effect of newly synthesized aurones, comet assay was performed on HCT -116 cell lines.
The agarose-coated glass slides were prepared according to the standard procedure (Tice et al. [2000]).
Compound selected—NISOA4.
Cell line used were- HCT116 cells (Human colorectal cancer cell lines).
HCT -116 (1 × 10^6) cells were treated with two different concentrations, 12.5, 25 μM of NISOA4 for 24 h.
The cells were centrifuged at 2000 rpm at 4 °C for 5 min followed by washing with PBS. Further, it was air dried and pellet was dissolved once again in PBS.
After keeping slides at 4 °C for 2 h, slides were removed from the lysis buffer and were placed side by side on a horizontal gel box near one end, sliding them as close together as possible.
The slides were placed on ice for 10 min and submerged in lysis buffer (2.5% NaCl, 100 mM EDTA, 10 mM Tris, 10% DMSO and 1% Troton X-100) at pH 10 at 4 °C for more than 1 h.
In the next step, the buffer reservoir was filled with freshly made electrophoresis buffer (pH > 13) until the liquid level was enough to cover the slides. […]
Slides were stained with 80 µL 1× Ethidium Bromide and left aside for 10 min followed by washing with PBS to remove the excess of stain. The slides were then scored immediately after washing.
The visualization of DNA damage was observed based on EtBr-staining technique using a 40× objective on a fluorescent microscope. The assessment of both qualitative as well as quantitative extent of DNA damage in the cells were carried out by measuring the length of DNA migration and the percentage of the migrated DNA using ImageJ software with open comet plug-in. Generally, 50 to 100 randomly selected cells are analysed per sample. Finally, the total tail amount was calculated. The final results are assessed by using the following parameters: (i)amount of migration per cell (ii) the number of cells with increased migration (iii) the extent of migration among damaged cells and (iv) cell viability (Końca et al. [2003]).

[2] = tested on: HCT-116 cells; test: Apoptosis detection by propidium iodide / Annexin V-FITC; set-up: FACS analysis of apoptosis detection, Viable cells / FACS analysis of apoptosis detection, Early apoptotic / FACS analysis of apoptosis detection, Late apoptotic / FACS analysis of apoptosis detection, Necrotic: unit not given here
Experimental: The day before induction of apoptosis, 1 × 10^6cells per well were plated on a 6-well plate using respective media with 10% FBS and 1% PenStrep, incubated overnight at 37 °C at 5% CO2.The media was replaced with test solutions of different concentrations in the media containing 10% FBS. The treated cells were incubated for 24 h at normal culture conditions. The cells were further harvested and the well contents were completely transferred into the sterile FACS tubes. The cell contents were centrifuged at 2000 rpm for 5 min and the supernatant was discarded. After centrifugation, the cells were washed twice with cold PBS and then resuspended in 1 ml of binding buffer at a concentration of 1× 10^6 cells/ml. […] of the cell suspension (5× 10^5 cells) were then transferred into a fresh FACS tube (Vermes et al. [1995]). Further, cells were gently mixed with […] of propidium iodide and […] of Annexin V before being incubated for 20 minutes at room temperature in the dark. The cells were immediately analyzed by flow cytometer within a duration of an hour.

[3] = tested on: Cyclin A gene expression in HCT 116 cell lines; test: Semi-quantitative RT-PCR gene expression of Cyclin A; details: for CyclinA expression profile (in words): HCT 116; for Relative gene expression of Cyclin A: control 1.00
Experimental: HCT-116 cells were trypsinized and added to 1 ml TRIzol and vortexed. Samples were then allowed to stand for 5 min at room temperature. 0.2 ml of chloroform per 1 ml of TRIzol was added. The tube was later stoppered and shaken vigorously for 15 s and was allowed to stand at room temperature for 5 min. The resulting mixture was then centrifuged at 10,000×rpm for 15 min at […]. The upper aqueous phase was transferred to another clean tube followed by the addition of 0.5 ml of isopropanol per 1 ml of TRIzol. The contents were mixed gently by inverting the sample 5 times and incubated at room temperature for 5 min. Further, the tubes were centrifuged at 10,000×rpm for the next 10 min at […]. Later, the supernatant was discarded and the RNA pellet was washed by adding 1 ml of 70% ethanol. Further, the contents were mixed gently by inverting the sample for few times. It was again centrifuged for 5 min at 14,000×rpm at […]. In the later step, the supernatant was discarded by inverting the tube on a clean tissue paper. Later, the pellet was dried by incubating in a […] for 5 min at 55 °C. The pellet was then resuspended in 25 µL of DEPC (Diethyl pyro carbonate) treated water.
A semi-quantitative reverse transcriptase polymerase chain reaction (RT-PCR) was carried out using Techno Prime system to determine the levels of β-actin and CDK-2 and CyclinA mRNA expression. The cDNA was synthesized from 2 µg of RNA using the Verso cDNA synthesis kit (Thermo Fischer Scientific) with oligo dT (deoxy thymine) primer according to the manufacturer’s instructions. The reaction volume was set to 20 μL and the cDNA synthesis was performed at 42 °C for 60 min followed by RT inactivation at 85 °C for 5 min (Murakami [1996]).
The PCR mixture (final volume of 20 µL) contains 1 µL of cDNA, 10 µL of Red Taq Master Mix 2× (Ampliqon) and 1 µM of each complementary primer specific for CDK2 and CyclinA and β-actin (internal control) sequence. The samples are denatured at 95 °C for 5 min and amplified using 35 cycles of 95 °C for 30 s then again at 55 °C for 30 s and 72 °C for 1 min for β-actin; the […] annealing was finally set to 56 °C followed by the final elongation at 72 °C for 10 min. […] Ten microliters of the final amplification product are run on a 2% ethidium-stained agarose gel and photographed. Quantification of the results could be accomplished by measuring the optical density of the bands, using the computerized imaging program Image J. The values were normalized to β-actin intensity levels (Bookout and Mangelsdorf [2003]).

COc1ccc(/C=C2\Oc3c(c(OC)cc(OC)c3C3=CCN(C(C)C)CC3)C2=O)cc1OC [NISOA4]
Olive moments (Mean ± SD) ([1]; 12.5 µM): 25.38 | Olive moments (Mean ± SD) ([1]; 12.5 µM, listed as NISOA04): 25.384 ± 24.333 | Olive moments (Mean ± SD) ([1]; 25 µM, listed as NISOA04): 73.582 ± 97.498 | FACS analysis of apoptosis detection, Early apoptotic ([2]; 12.5 µM): 6.36 | FACS analysis of apoptosis detection, Late apoptotic ([2]; 12.5 µM): 28.95 | FACS analysis of apoptosis detection, Necrotic ([2]; 12.5 µM): 9.61 | FACS analysis of apoptosis detection, Viable cells ([2]; 12.5 µM): 55.08 | FACS analysis of apoptosis detection, Early apoptotic ([2]; 25 µM): 0.17 | FACS analysis of apoptosis detection, Late apoptotic ([2]; 25 µM): 52.11 | FACS analysis of apoptosis detection, Necrotic ([2]; 25 µM): 24.06 | FACS analysis of apoptosis detection, Viable cells ([2]; 25 µM): 23.66 | Band intensity Of PCR Amplicon Of genes, Cyclin A ([3]; 12.5 μM): 16,245.903 | Normalized (Cyclin A to β-actin) ([3]; 12.5 μM): 0.64 | CyclinA expression profile (in words) ([3]; 12.5 μM): very little or no reduction | Relative gene expression of Cyclin A ([3]; 12.5 μM): 1.00 | Band intensity Of PCR Amplicon Of genes, Cyclin A ([3]; 25 μM): 10,798.368 | Normalized (Cyclin A to β-actin) ([3]; 25 μM): 0.43 | CyclinA expression profile (in words) ([3]; 25 μM): clear decrease | Relative gene expression of Cyclin A ([3]; 25 μM): 0.67
